11 compounds from patent US11986471B2, “Compounds and methods of use” (Tango Therapeutics, Inc., priority 2018, dated 2024) can be followed below.

One assay has as its system HAP1 MTAP-intact. Description: SDMA in-cell western assay, HAP1 MTAP-intact cell line. The assay is classed as cell-based. The settings on record: Homo sapiens. Put shortly: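 IC50 values come from SDMA in-cell western staining of HAP1 cells. The MTAP-intact line carries endogenous MTAP, while its MTAP-deleted counterpart lacks MTAP entirely. A selectivity ratio of at least 3 fold marks a compound as MTAP-selective.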

The target in assay [1] is T1, PRMT5 (Homo sapiens, UniProt O14744).
T1 construct: purchased Viva (custom protein)
Description: PRMT5 IC50 assay in the presence of SAM as cofactor. The assay is classed as biochemical. Put shortly: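 For the SAM-containing format, dividing IC50 by 1.5 yields Ki; for the MTA-containing format the divisor is 13.5. A third format without cofactor gives IC50 alone.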

Assay [2] deals with T1, PRMT5. Description: PRMT5 IC50 assay with no cofactor. Format: biochemical. The gist of the method:
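Cofactor-free, SAM and MTA formats; IC50 μM; Ki = IC50/1.5 for SAM, IC50/13.5 for MTA.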

In the next assay the test system is HAP1 MTAP-deleted. The assay is described as follows: SDMA in-cell western assay, HAP1 MTAP-deleted cell line. To be noted: for IC50: Homo sapiens, HAP1 MTAP-deleted cell line; for MTAP Intact/Deleted Ratio: IC50 ratio HAP1 MTAP-intact / HAP1 MTAP-deleted. Format: cell-based. Put shortly: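 Readout is cellular SDMA signal by in-cell western, with IC50 values derived from it. The cells are MTAP-null HAP1, matched to an isogenic MTAP-intact HAP1 line.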

Assay [3] deals with T1, PRMT5. The assay is described as follows: PRMT5 IC50 assay in the presence of MTA as cofactor. Format: biochemical. To be noted: for IC50: PRMT5, MTA as cofactor; for SAM/MTA Ratio: ratio between the Ki in the presence of SAM and the Ki in the presence of MTA. The gist of the method:
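Potency against PRMT5 is compared across cofactor states, where IC50 equals Ki×1.5 with SAM present and Ki×13.5 with MTA present.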

SMILES strings stand for the structures.

T1 sequence (O14744 whole entry): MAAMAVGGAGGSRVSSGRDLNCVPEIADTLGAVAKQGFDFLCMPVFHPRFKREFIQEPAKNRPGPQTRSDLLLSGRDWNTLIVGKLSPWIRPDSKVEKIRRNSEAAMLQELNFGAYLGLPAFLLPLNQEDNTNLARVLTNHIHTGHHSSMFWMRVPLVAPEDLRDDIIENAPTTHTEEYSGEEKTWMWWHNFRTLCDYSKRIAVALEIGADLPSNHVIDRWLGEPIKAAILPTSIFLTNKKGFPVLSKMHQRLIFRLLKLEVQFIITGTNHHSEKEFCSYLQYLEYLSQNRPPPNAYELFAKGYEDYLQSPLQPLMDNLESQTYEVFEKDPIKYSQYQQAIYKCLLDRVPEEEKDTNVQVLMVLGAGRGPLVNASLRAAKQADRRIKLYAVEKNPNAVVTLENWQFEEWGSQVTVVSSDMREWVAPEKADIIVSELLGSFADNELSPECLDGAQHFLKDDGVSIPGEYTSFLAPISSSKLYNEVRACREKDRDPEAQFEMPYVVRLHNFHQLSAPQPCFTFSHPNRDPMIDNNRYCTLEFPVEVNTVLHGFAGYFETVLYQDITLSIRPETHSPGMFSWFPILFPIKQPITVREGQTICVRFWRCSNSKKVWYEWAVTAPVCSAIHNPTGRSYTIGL
T1 sequence (Q9BQA1 whole entry partner): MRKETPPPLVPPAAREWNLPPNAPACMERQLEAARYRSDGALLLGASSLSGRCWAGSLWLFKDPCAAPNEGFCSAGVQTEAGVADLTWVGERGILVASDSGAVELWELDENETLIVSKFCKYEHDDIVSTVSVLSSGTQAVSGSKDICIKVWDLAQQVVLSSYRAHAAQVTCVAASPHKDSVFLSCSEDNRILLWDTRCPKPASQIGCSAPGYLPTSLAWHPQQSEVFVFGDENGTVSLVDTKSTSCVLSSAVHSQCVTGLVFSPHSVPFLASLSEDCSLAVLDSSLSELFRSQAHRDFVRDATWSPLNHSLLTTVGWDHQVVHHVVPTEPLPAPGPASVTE

For orientation: IC50 means the concentration needed to halve the response being measured. Turning to `CC(C)CC(=O)N1CCC(Nc2cc(C(=O)NC[C@H](O)CN3CCc4c(ccc(OCc5cnco5)c4Cl)C3)ccn2)CC1` [Compound 443, (S)—N-(3-(5-chloro-6-(oxazol-5-ylmethoxy)-3N-dihydroisoquinolin-2(1H)-yl)-2-hydroxypropyl)-2-((1-(3-methylbutanoyl)piperidin-4-yl)amino)isonicotinamide], the half-inhibitory concentration (IC50) is no less than 10000 nM in the assay with HAP1 MTAP-intact; 50 to 500 nM at PRMT5 [1]; 500 to 5000 nM at PRMT5 [2]; less than 1000 nM in the assay with HAP1 MTAP-deleted; 50 to 500 nM at PRMT5 [3]. The “MTAP Intact/Deleted Ratio” value in the assay on HAP1 MTAP-deleted was “A* (an IC50 ratio greater than or equal to 10 fold between the IC50 in the HAP1 MTAP-intact cell line and the HAP1 MTAP-deleted cell line)”. Also, the “SAM/MTA Ratio” value at PRMT5 [3] is “A (a Ki ratio greater than or equal to 10 fold between the Ki in the presence of SAM and the Ki in the presence of MTA)”.

For `Cc1ncoc1COc1ccc2c(c1C)CCN(C[C@@H](O)CNC(=O)c1cc(NC3COC3)nc(N3CCN(C(C)C)CC3)n1)C2` [Compound 444, N-[(2S)-2-hydroxy-3-{5-methyl-6-[(4-methyl-1,3-oxazol-5-yl)methoxy]-1,2,3,4-tetrahydroisoquinolin-2-yl}propyl]-6-[(oxetan-3-yl)amino]-2-[4-(propan-2-yl)piperazin-1-yl]pyrimidine-4-carboxamide], the 50% inhibitory concentration (IC50) with HAP1 MTAP-intact is no less than 10000 nM; on PRMT5 [1], 50 to 500 nM; on PRMT5 [2], no less than 5000 nM; in the assay on HAP1 MTAP-deleted, 1000 to 10000 nM; on PRMT5 [3], 50 to 500 nM. In addition, the “MTAP Intact/Deleted Ratio” value in the assay on HAP1 MTAP-deleted was “C* (an IC50 ratio of less than 3 fold between the IC50 in the HAP1 MTAP-intact cell line and the HAP1 MTAP-deleted cell line)”. Besides, the “SAM/MTA Ratio” value on PRMT5 [3] was “A (a Ki ratio greater than or equal to 10 fold between the Ki in the presence of SAM and the Ki in the presence of MTA)”.

As for `CCN(C)c1cc(C(=O)NC[C@H](O)CN2CCc3c(ccc(OCc4cnco4)c3Cl)C2)cc(NC2CCC2)n1` [Compound 445, (S)—N-(3-(5-chloro-6-(oxazol-5-ylmethoxy)-3N-dihydroisoquinolin-2(1H)-yl)-2-hydroxypropyl)-2-(cyclobutylamino)-6-(ethyl(methyl)amino)isonicotinamide], the IC50 was no less than 10000 nM in the assay with HAP1 MTAP-intact; 500 to 5000 nM on PRMT5 [1]; no less than 5000 nM against PRMT5 [2]; no less than 10000 nM with HAP1 MTAP-deleted; 50 to 500 nM at PRMT5 [3]. The “MTAP Intact/Deleted Ratio” value with HAP1 MTAP-deleted was “C* (an IC50 ratio of less than 3 fold between the IC50 in the HAP1 MTAP-intact cell line and the HAP1 MTAP-deleted cell line)”. The “SAM/MTA Ratio” value at PRMT5 [3] was “A (a Ki ratio greater than or equal to 10 fold between the Ki in the presence of SAM and the Ki in the presence of MTA)”.

`CC(C)CC(=O)N1CCC(Nc2cc(C(=O)NC[C@H](O)CN3CCc4cc(OCc5cnco5)ccc4C3)ccn2)CC1` [Compound 446, N-[(2S)-2-hydroxy-3-[6-(oxazol-5-ylmethoxy)-3,4-dihydro-1H-isoquinolin-2-yl]propyl]-2-[[1-(3-methylbutanoyl)-4-piperidyl]amino]pyridine-4-carboxamide]: the IC50 in the assay with HAP1 MTAP-intact was 1000 to 10000 nM; at PRMT5 [1], 50 to 500 nM; against PRMT5 [2], 500 to 5000 nM; in the assay on HAP1 MTAP-deleted it was less than 1000 nM; at PRMT5 [3] it was less than 50 nM. The “MTAP Intact/Deleted Ratio” value in the assay with HAP1 MTAP-deleted was “C* (an IC50 ratio of less than 3 fold between the IC50 in the HAP1 MTAP-intact cell line and the HAP1 MTAP-deleted cell line)”. The “SAM/MTA Ratio” value at PRMT5 [3] was “A (a Ki ratio greater than or equal to 10 fold between the Ki in the presence of SAM and the Ki in the presence of MTA)”.

With `Cc1c(OCc2cnco2)ccc2c1CCN(C[C@@H](O)CNC(=O)c1ccnc(NC3CCN(C(=O)CC(C)C)CC3)c1)C2` [Compound 447, (S)—N-(2-hydroxy-3-(5-methyl-6-(oxazol-5-ylmethoxy)-3N-dihydroisoquinolin-2(1H)-yl)propyl)-2-((1-(3-methylbutanoyl)piperidin-4-yl)amino)isonicotinamide], the IC50 with HAP1 MTAP-intact is no less than 10000 nM; on PRMT5 [1] it was 50 to 500 nM; at PRMT5 [2], 500 to 5000 nM; in the assay with HAP1 MTAP-deleted it was less than 1000 nM; on PRMT5 [3], 50 to 500 nM. Moreover, the “MTAP Intact/Deleted Ratio” value in the assay on HAP1 MTAP-deleted is “A* (an IC50 ratio greater than or equal to 10 fold between the IC50 in the HAP1 MTAP-intact cell line and the HAP1 MTAP-deleted cell line)”. Also, the “SAM/MTA Ratio” value on PRMT5 [3] was “A (a Ki ratio greater than or equal to 10 fold between the Ki in the presence of SAM and the Ki in the presence of MTA)”.

As for `CN1CCN(c2cc(C(=O)NC[C@H](O)CN3CCc4cc(OCc5cnco5)ccc4C3)cc(NC3CCC3)n2)CC1` [Compound 448], the IC50 with HAP1 MTAP-intact is less than 1000 nM; at PRMT5 [1] it was 50 to 500 nM; against PRMT5 [2] it was 500 to 5000 nM; in the assay with HAP1 MTAP-deleted, less than 1000 nM; on PRMT5 [3], 50 to 500 nM. The “MTAP Intact/Deleted Ratio” value with HAP1 MTAP-deleted is “C* (an IC50 ratio of less than 3 fold between the IC50 in the HAP1 MTAP-intact cell line and the HAP1 MTAP-deleted cell line)”. The “SAM/MTA Ratio” value at PRMT5 [3] was “A (a Ki ratio greater than or equal to 10 fold between the Ki in the presence of SAM and the Ki in the presence of MTA)”.

In the case of `CC(C)(C)C(=O)N1CCC(Nc2cc(C(=O)NC[C@H](O)CN3CCc4cc(OCc5cnco5)ccc4C3)ccn2)CC1` [Compound 449, 2-[[1-(2,2-dimethylpropanoyl)-4-piperidyl]amino]-N-[(2S)-2-hydroxy-3-[6-(oxazol-5-ylmethoxy)-3,4-dihydro-1H-isoquinolin-2-yl]propyl]pyridine-4-carboxamide], the concentration for half-maximal inhibition (IC50) with HAP1 MTAP-intact is 1000 to 10000 nM; at PRMT5 [1], 50 to 500 nM; against PRMT5 [2] it was 500 to 5000 nM; with HAP1 MTAP-deleted, less than 1000 nM; on PRMT5 [3], 50 to 500 nM. Also, in the assay with HAP1 MTAP-deleted, the “MTAP Intact/Deleted Ratio” value was “C* (an IC50 ratio of less than 3 fold between the IC50 in the HAP1 MTAP-intact cell line and the HAP1 MTAP-deleted cell line)”. Also, the “SAM/MTA Ratio” value on PRMT5 [3] is “A (a Ki ratio greater than or equal to 10 fold between the Ki in the presence of SAM and the Ki in the presence of MTA)”.

Turning to `O=C(NC[C@H](O)CN1CCc2cc(OCc3cnco3)ccc2C1)c1ccnc(NC2CCN(C(=O)C3CC3)CC2)c1` [Compound 450, 2-[[1-(cyclopropanecarbonyl)-4-piperidyl]amino]-N-[(2S)-2-hydroxy-3-[6-(oxazol-5-ylmethoxy)-3,4-dihydro-1H-isoquinolin-2-yl]propyl]pyridine-4-carboxamide], the IC50 in the assay with HAP1 MTAP-intact was no less than 10000 nM; on PRMT5 [1], 50 to 500 nM; against PRMT5 [2], 500 to 5000 nM; with HAP1 MTAP-deleted it was less than 1000 nM; at PRMT5 [3], 50 to 500 nM. Also, in the assay on HAP1 MTAP-deleted, the “MTAP Intact/Deleted Ratio” value was “A* (an IC50 ratio greater than or equal to 10 fold between the IC50 in the HAP1 MTAP-intact cell line and the HAP1 MTAP-deleted cell line)”. Also, the “SAM/MTA Ratio” value on PRMT5 [3] was “A (a Ki ratio greater than or equal to 10 fold between the Ki in the presence of SAM and the Ki in the presence of MTA)”.

Turning to `CC(=O)N1CC(Nc2cc(C(=O)NC[C@H](O)CN3CCc4cc(OCc5cnco5)ccc4C3)ccn2)C1` [Compound 451], the half-maximal inhibitory concentration (IC50) is no less than 10000 nM in the assay on HAP1 MTAP-intact; 50 to 500 nM at PRMT5 [1]; 500 to 5000 nM at PRMT5 [2]; no less than 10000 nM in the assay with HAP1 MTAP-deleted; 50 to 500 nM at PRMT5 [3]. The “MTAP Intact/Deleted Ratio” value in the assay on HAP1 MTAP-deleted was “C* (an IC50 ratio of less than 3 fold between the IC50 in the HAP1 MTAP-intact cell line and the HAP1 MTAP-deleted cell line)”. Further, the “SAM/MTA Ratio” value on PRMT5 [3] was “A (a Ki ratio greater than or equal to 10 fold between the Ki in the presence of SAM and the Ki in the presence of MTA)”.

Regarding `CC(C)C(=O)N1CCC(Nc2cc(C(=O)NC[C@H](O)CN3CCc4c(ccc(OCc5cnco5)c4Cl)C3)ccn2)CC1` [Compound 452], the IC50 is no less than 10000 nM in the assay on HAP1 MTAP-intact; 50 to 500 nM on PRMT5 [1]; 500 to 5000 nM at PRMT5 [2]; 1000 to 10000 nM in the assay with HAP1 MTAP-deleted; 50 to 500 nM on PRMT5 [3]. In addition, in the assay with HAP1 MTAP-deleted, the “MTAP Intact/Deleted Ratio” value is “B* (an IC50 ratio greater than or equal to 3 fold but lower than 10 fold between the IC50 in the HAP1 MTAP-intact cell line and the HAP1 MTAP-deleted cell line)”. Besides, the “SAM/MTA Ratio” value at PRMT5 [3] was “A (a Ki ratio greater than or equal to 10 fold between the Ki in the presence of SAM and the Ki in the presence of MTA)”.

Turning to `Cc1ncoc1COc1ccc2c(c1)CCN(C[C@@H](O)CNC(=O)c1cc(NC3COC3)nc(N3CCN(C(=O)C(C)C)CC3)n1)C2` [Compound 454, N-[(2S)-2-hydroxy-3-{6-[(4-methyl-1,3-oxazol-5-yl)methoxy]-1,2,3,4-tetrahydroisoquinolin-2-yl}propyl]-2-[4-(2-methylpropanoyl)piperazin-1-yl]-6-[(oxetan-3-yl)amino]pyrimidine-4-carboxamide], the IC50 in the assay with HAP1 MTAP-intact was 1000 to 10000 nM; on PRMT5 [1], 50 to 500 nM; on PRMT5 [2] it was 500 to 5000 nM; in the assay on HAP1 MTAP-deleted, less than 1000 nM; on PRMT5 [3] it was 50 to 500 nM. Moreover, in the assay on HAP1 MTAP-deleted, the “MTAP Intact/Deleted Ratio” value was “B* (an IC50 ratio greater than or equal to 3 fold but lower than 10 fold between the IC50 in the HAP1 MTAP-intact cell line and the HAP1 MTAP-deleted cell line)”. In addition, the “SAM/MTA Ratio” value on PRMT5 [3] is “A (a Ki ratio greater than or equal to 10 fold between the Ki in the presence of SAM and the Ki in the presence of MTA)”.
